The text below walks through data of patent publication US9593381B2, “Method and kit for detecting carbapenemase genes” (Amplidiag OY, priority 2009, dated 2017).

A value given as a limit tells only on which side of the number the result lay.

For assay [1], the target named is T1, NDM-1 (Klebsiella pneumoniae, UniProt C7C422). As to conditions: metallo-β-lactamase NDM-1; cited from earlier work.
In assay [2] the target is T1, NDM-1. As to conditions: cited from earlier work.
For assay [3], the system named is Enterobacter cloacae strain harbouring IMI-2 gene. Description: Antibiotic susceptibility (MIC) of the IMI-2 positive clinical strain. The format is cell-based. More on the design: MIC: unit not given beside the values. As to conditions: for resistance of the strain: IMI-2 positive Enterobacter cloacae strain.

T1 sequence (C7C422 29-270 limits assumed): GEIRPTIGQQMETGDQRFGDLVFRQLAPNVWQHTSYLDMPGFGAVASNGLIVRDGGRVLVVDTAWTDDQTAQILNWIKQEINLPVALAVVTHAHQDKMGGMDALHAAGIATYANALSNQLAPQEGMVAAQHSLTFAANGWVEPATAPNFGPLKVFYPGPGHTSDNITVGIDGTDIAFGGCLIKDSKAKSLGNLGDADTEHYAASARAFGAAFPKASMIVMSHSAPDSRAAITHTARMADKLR

Regarding `C[C@H]1[C@H](NC(=O)/C(=N\OC(C)(C)C(=O)O)c2csc(N)n2)C(=O)N1S(=O)(=O)O` [aztreonam], the “hydrolysis by NDM-1” value on NDM-1 [1] was “can hydrolyze all β-lactams except aztreonam”.

Turning to `CO/N=C(\C(=O)N[C@@H]1C(=O)N2C(C(=O)O)=C(COC(C)=O)CS[C@H]12)c1csc(N)n1` [cefotaxime], the “binding to NDM-1 compared to VIM-2” value on NDM-1 [2] was “tighter binding”.

As for `CO/N=C(\C(=O)N[C@@H]1C(=O)N2C(C(=O)O)=C(COC(N)=O)CS[C@H]12)c1ccco1` [cefuroxime], the “binding to NDM-1 compared to VIM-2” value at NDM-1 [2] is given as “tighter binding”.

Turning to `CC(=O)OCC1=C(C(=O)O)N2C(=O)[C@@H](NC(=O)Cc3cccs3)[C@H]2SC1` [cephalothin], the “binding to NDM-1 compared to VIM-2” value at NDM-1 [2] was “tighter binding”.

In the case of `C[C@@H](O)[C@H]1C(=O)N2C(C(=O)O)=C(S[C@@H]3CN[C@H](C(=O)Nc4cccc(C(=O)O)c4)C3)[C@H](C)[C@H]12` [ertapenem], the “resistance of the strain” value in assay [3] was “highly resistant”. In addition, the MIC in assay [3] (IMI-2 positive Enterobacter cloacae strain isolated from a patient in intensive care unit) was over 256.

As for `C[C@@H](O)[C@H]1C(=O)N2C(C(=O)O)=C(S[C@@H]3CN[C@H](C(=O)N(C)C)C3)[C@H](C)[C@H]12` [meropenem], the “resistance of the strain” value in assay [3] is given as “highly resistant”.

As to trimetoprim/sulfa, the “resistance of the strain” value in assay [3] is “not, however, resistant”.
